How the values were obtained:
VIM-1 = biological target: T1, VIM-1 (Pseudomonas aeruginosa, UniProt A0A0F7KYQ8); experiment: In vitro inhibition assay (kinetic fluorescence-based activity assay), VIM-1; format: biochemical; conditions: Means and SD of at least two independent experiments
T1 construct: made in house
Protocol: (§1) Protein expression and purification. The expression of IMP-7, VIM-1, and NDM-1 was performed according to the protocol previously published by Klingler et al. (Klingler, F. M.; Wichelhaus, T. A.; Frank, D.; Cuesta-Bernal, J.; El-Delik, J.; Müller, H. F.; Sjuts, H.; Gottig, S.; Koenigs, A.; Pos, K. M.; et al. Approved Drugs Containing Thiols as Inhibitors of Metallo-β-Lactamases: Strategy to Combat Multidrug-Resistant Bacteria. J. Med. Chem. 2015, 58 (8), 3626-3630. https://doi.org/10.1021/jm501844d) with slight modifications.
(§2) In vitro inhibition assay. Activity assays for NDM-1, VIM-1, VIM-2 and IMP-7 were carried out, as described by Klingler et al. Final protein concentrations were 0.5 nM (NDM-1), 4.0 nM (VIM-1), and 0.1 nM (IMP-7) in a 50 mM HEPES buffer (pH 7.5, 0.01% Triton X-100) Substrate (Fluorocillin™ (Invitrogen, Darmstadt, Germany) was dissolved in assay buffer to a final concentration of 888 nM. Test compounds were dissolved and pre-diluted in DMSO (final concentration: 1%). In a black polystyrol 96-well plate (Corning) an amount of […] of the respective inhibitor solution at different concentrations was incubated with […] of respective protein containing buffer for 30 minutes at room temperature. […] of substrate solution was added. The readout of the emitted fluorescence was started immediately (45 s for 30 cycles) using a Tecan Infinite F200Pro (Tecan Group Ltd; excitation at 495 nm and emission at 525 nm). Blank controls were performed without enzyme. Positive controls were performed with enzyme but without inhibitor. The inhibitory activity of each test compound was measured in three independent experiments. For calculation of IC50 values, data obtained from measurements with eight different inhibitor concentrations were used. For the evaluation of the sigmoidal dose response equation (variable slope with four parameters) GraphPad Prism 5 (GraphPad Software, La Jolla, Calif., USA) was used.

NDM-1 = biological target: T2, NDM-1 (Klebsiella pneumoniae, UniProt C7C422); experiment: In vitro inhibition assay (kinetic fluorescence-based activity assay), NDM-1; format: biochemical; conditions: Means and SD of at least two independent experiments
T2 construct: made in house
T2 sequence (C7C422 29-270, looked up, species assumed): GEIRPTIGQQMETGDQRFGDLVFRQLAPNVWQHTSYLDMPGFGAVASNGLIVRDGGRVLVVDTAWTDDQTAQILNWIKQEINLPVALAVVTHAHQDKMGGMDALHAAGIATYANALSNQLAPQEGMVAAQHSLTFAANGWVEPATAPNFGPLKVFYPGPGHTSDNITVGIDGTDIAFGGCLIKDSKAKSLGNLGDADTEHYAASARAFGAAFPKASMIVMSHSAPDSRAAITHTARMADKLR
Protocol: as §1, §2

IMP-7 = IMP-7 (Pseudomonas aeruginosa, UniProt Q93AU3); experiment: In vitro inhibition assay (kinetic fluorescence-based activity assay), IMP-7; format: biochemical; conditions: Means and SD of at least two independent experiments
Chain of IMP-7 (Q93AU3 entry or part of it): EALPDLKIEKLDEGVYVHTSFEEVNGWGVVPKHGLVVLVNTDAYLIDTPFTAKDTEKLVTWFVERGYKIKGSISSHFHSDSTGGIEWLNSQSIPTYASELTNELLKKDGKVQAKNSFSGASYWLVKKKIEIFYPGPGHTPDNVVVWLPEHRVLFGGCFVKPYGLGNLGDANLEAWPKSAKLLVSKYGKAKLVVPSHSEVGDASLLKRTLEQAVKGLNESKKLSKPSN
Protocol: as §1, §2

[1] = tested on: different isolates from E. coli and P. aeruginosa; experiment: MIC assay, intrinsic antibacterial activity; format: cell-based; conditions: compound alone
E. coli VIM-1 (T2544) = experiment: Checkerboard assay with imipenem, E. coli VIM-1 (T2544); format: cell-based
Protocol: (§3) Fractional inhibitory concentration index (FICI). The checkerboard assay was performed to test for synergy in vitro. […] FICIs≤0.5 were defined as synergistic; FICIs from >0.5 to […] were defined as additive; FICIs from 1 to ≤4 were defined as indifferent and FICIs>4 were defined as antagonistic (Doern, C. D. When Does 2 plus 2 Equal 5? A Review of Antimicrobial Synergy Testing. J. Clin. Microbial. 2014, 52 (12), 4124-4128. https://doi.org/10.1128/JCM.01121-14).

E. coli NDM-1 (T2359) = experiment: Checkerboard assay with imipenem, E. coli NDM-1 (T2359); format: cell-based; conditions: Table 6
Protocol: as §3

E. coli IMP-1 (T2360) = experiment: Checkerboard assay with imipenem, E. coli IMP-1 (T2360); format: cell-based
Protocol: as §3

IC50 (VIM-1)	IC50 (NDM-1)	IC50 (IMP-7)	Structure (SMILES)	intrinsic antibacterial activity (MIC) [1]	Imipenem MIC (E. coli VIM-1 (T2544); +2 mg/L compound)	Imipenem MIC (E. coli VIM-1 (T2544); +4 mg/L compound)	Imipenem MIC (E. coli VIM-1 (T2544); +8 mg/L compound)	Imipenem MIC (E. coli VIM-1 (T2544); +16 mg/L compound)	Imipenem MIC (E. coli VIM-1 (T2544); +32 mg/L compound)	Imipenem MIC (E. coli VIM-1 (T2544); +64 mg/L compound)	Imipenem MIC (E. coli VIM-1 (T2544); +128 mg/L compound)	Imipenem MIC (E. coli NDM-1 (T2359); +2 mg/L compound)	Imipenem MIC (E. coli NDM-1 (T2359); +4 mg/L compound)	Imipenem MIC (E. coli NDM-1 (T2359); +8 mg/L compound)	Imipenem MIC (E. coli NDM-1 (T2359); +16 mg/L compound)	Imipenem MIC (E. coli NDM-1 (T2359); +32 mg/L compound)	Imipenem MIC (E. coli NDM-1 (T2359); +64 mg/L compound)	Imipenem MIC (E. coli NDM-1 (T2359); +128 mg/L compound)	Imipenem MIC (E. coli IMP-1 (T2360); +2 mg/L compound)	Imipenem MIC (E. coli IMP-1 (T2360); +4 mg/L compound)	other results
0.1 µM	2.5 ± 0.2 µM	2.6 ± 0.1 µM	O=C(CCS)Nc1cccc([N+](=O)[O-])c1 [HIPS5662]	–	–	–	–	–	–	–	–	–	–	–	–	–	–	–	–	–	–
0.8 µM	2.8 ± 0.1 µM	2.1 ± 0.2 µM	CN(C)S(=O)(=O)c1ccc(NC(=O)CCS)cc1 [HIPS5665]	–	–	–	–	–	–	–	–	–	–	–	–	–	–	–	–	–	–
0.5 µM	6.5 ± 0.5 µM	2.1 ± 0.3 µM	Nc1ccc(NC(=O)CCS)cc1 [HIPS5666]	–	–	–	–	–	–	–	–	–	–	–	–	–	–	–	–	–	–
1.5 ± 0.1 µM	6.4 ± 0.6 µM	5.8 ± 0.4 µM	CN1CCN(Cc2ccc(NC(=O)CCS)cc2)CC1 [HIPS5696]	–	–	–	–	–	–	–	–	–	–	–	–	–	–	–	–	–	–

The next lines start with the compound.

Structure (SMILES)	IC50 (VIM-1)	IC50 (NDM-1)	IC50 (IMP-7)	intrinsic antibacterial activity (MIC) [1]	Imipenem MIC (E. coli VIM-1 (T2544); +2 mg/L compound)	Imipenem MIC (E. coli VIM-1 (T2544); +4 mg/L compound)	Imipenem MIC (E. coli VIM-1 (T2544); +8 mg/L compound)	Imipenem MIC (E. coli VIM-1 (T2544); +16 mg/L compound)	Imipenem MIC (E. coli VIM-1 (T2544); +32 mg/L compound)	Imipenem MIC (E. coli VIM-1 (T2544); +64 mg/L compound)	Imipenem MIC (E. coli VIM-1 (T2544); +128 mg/L compound)	Imipenem MIC (E. coli NDM-1 (T2359); +2 mg/L compound)	Imipenem MIC (E. coli NDM-1 (T2359); +4 mg/L compound)	Imipenem MIC (E. coli NDM-1 (T2359); +8 mg/L compound)	Imipenem MIC (E. coli NDM-1 (T2359); +16 mg/L compound)	Imipenem MIC (E. coli NDM-1 (T2359); +32 mg/L compound)	Imipenem MIC (E. coli NDM-1 (T2359); +64 mg/L compound)	Imipenem MIC (E. coli NDM-1 (T2359); +128 mg/L compound)	Imipenem MIC (E. coli IMP-1 (T2360); +2 mg/L compound)	Imipenem MIC (E. coli IMP-1 (T2360); +4 mg/L compound)	other results
CCN(CC)Cc1cccc(NC(=O)CCS)c1 [HIPS5664]	0.8 ± 0.1 µM	6.5 ± 0.4 µM	5.5 ± 0.7 µM	–	–	–	–	–	–	–	–	–	–	–	–	–	–	–	–	–	–
O=C(CCS)Nc1cccc(S(=O)(=O)O)c1 [HIPS5672]	1.6 ± 0.1 µM	1.3 µM	3.6 ± 0.3 µM	no intrinsic antibacterial activity	64 µg/mL	64 µg/mL	64 µg/mL	32 µg/mL	32 µg/mL	8 µg/mL	4 µg/mL	128 µg/mL	128 µg/mL	128 µg/mL	128 µg/mL	128 µg/mL	32 µg/mL	2 µg/mL	2 µg/mL	2 µg/mL	Imipenem MIC (E. coli IMP-1 (T2360); +8 mg/L compound): 2 µg/mL; Imipenem MIC (E. coli IMP-1 (T2360); +16 mg/L compound): 1 µg/mL; Imipenem MIC (E. coli IMP-1 (T2360); +32 mg/L compound): 1 µg/mL; Imipenem MIC (E. coli IMP-1 (T2360); +64 mg/L compound): 1 µg/mL; Imipenem MIC (E. coli IMP-1 (T2360); +128 mg/L compound): 0.5 µg/mL
NC(=O)NS(=O)(=O)c1ccc(NC(=O)CCS)cc1 [HIPS5682]	2 ± 0.1 µM	8.6 ± 0.2 µM	12.6 ± 2.8 µM	no intrinsic antibacterial activity	32 µg/mL	32 µg/mL	32 µg/mL	32 µg/mL	16 µg/mL	8 µg/mL	2 µg/mL	128 µg/mL	128 µg/mL	128 µg/mL	128 µg/mL	128 µg/mL	64 µg/mL	16 µg/mL	2 µg/mL	2 µg/mL	Imipenem MIC (E. coli IMP-1 (T2360); +8 mg/L compound): 2 µg/mL; Imipenem MIC (E. coli IMP-1 (T2360); +16 mg/L compound): 1 µg/mL; Imipenem MIC (E. coli IMP-1 (T2360); +32 mg/L compound): 1 µg/mL; Imipenem MIC (E. coli IMP-1 (T2360); +64 mg/L compound): 1 µg/mL; Imipenem MIC (E. coli IMP-1 (T2360); +128 mg/L compound): 1 µg/mL
N=C(N)NS(=O)(=O)c1ccc(NC(=O)CCS)cc1 [HIPS5683]	0.5 µM	2.1 ± 0.1 µM	3.3 ± 0.4 µM	no intrinsic antibacterial activity	32 µg/mL	32 µg/mL	32 µg/mL	32 µg/mL	16 µg/mL	8 µg/mL	2 µg/mL	128 µg/mL	128 µg/mL	128 µg/mL	128 µg/mL	128 µg/mL	64 µg/mL	16 µg/mL	2 µg/mL	1 µg/mL	Imipenem MIC (E. coli IMP-1 (T2360); +8 mg/L compound): 1 µg/mL; Imipenem MIC (E. coli IMP-1 (T2360); +16 mg/L compound): 1 µg/mL; Imipenem MIC (E. coli IMP-1 (T2360); +32 mg/L compound): 1 µg/mL; Imipenem MIC (E. coli IMP-1 (T2360); +64 mg/L compound): 1 µg/mL; Imipenem MIC (E. coli IMP-1 (T2360); +128 mg/L compound): 0.5 µg/mL
O=C(CCS)Nc1ccc(C(=O)O)cc1 [HIPS5695]	0.6 µM	1 ± 0.4 µM	–	no intrinsic antibacterial activity	16 µg/mL	16 µg/mL	16 µg/mL	16 µg/mL	4 µg/mL	2 µg/mL	1 µg/mL	128 µg/mL	128 µg/mL	128 µg/mL	128 µg/mL	128 µg/mL	32 µg/mL	8 µg/mL	2 µg/mL	2 µg/mL	IC50 (μM) IMP-7 (IMP-7): n.i.; Imipenem MIC (E. coli IMP-1 (T2360); +8 mg/L compound): 2 µg/mL; Imipenem MIC (E. coli IMP-1 (T2360); +16 mg/L compound): 1 µg/mL; Imipenem MIC (E. coli IMP-1 (T2360); +32 mg/L compound): 1 µg/mL; Imipenem MIC (E. coli IMP-1 (T2360); +64 mg/L compound): 0.5 µg/mL; Imipenem MIC (E. coli IMP-1 (T2360); +128 mg/L compound): 0.5 µg/mL

Source: patent publication US20230146507A1, “N-PHENYL-3-MERCAPTOPROPANAMIDE DERIVATIVES AS METALLO-BETA-LACTAMASE INHIBITORS FOR THE TREATMENT OF BACTERIAL INFECTIONS” (Helmholtz-Zentrum Für Infektionsforschung GmbH, priority 2020, published 2023)
